Test results from patent publication US20250361230A1, “LATS Inhibitors and Uses Thereof” (The USA, as Represented by the Secretary, Dept. of Heath …, priority 2022, published 2025).
Where two headings read alike, the source gives them in different places.

Legend:
Format in all cases: biochemical
LATS2 = target: T1, LATS2 (Homo sapiens, UniProt Q9NRM7); assay: RBC HotSpot kinase assay (33P-ATP, P81 filter-binding), LATS2
T1 sequence (Q9NRM7 1-1088): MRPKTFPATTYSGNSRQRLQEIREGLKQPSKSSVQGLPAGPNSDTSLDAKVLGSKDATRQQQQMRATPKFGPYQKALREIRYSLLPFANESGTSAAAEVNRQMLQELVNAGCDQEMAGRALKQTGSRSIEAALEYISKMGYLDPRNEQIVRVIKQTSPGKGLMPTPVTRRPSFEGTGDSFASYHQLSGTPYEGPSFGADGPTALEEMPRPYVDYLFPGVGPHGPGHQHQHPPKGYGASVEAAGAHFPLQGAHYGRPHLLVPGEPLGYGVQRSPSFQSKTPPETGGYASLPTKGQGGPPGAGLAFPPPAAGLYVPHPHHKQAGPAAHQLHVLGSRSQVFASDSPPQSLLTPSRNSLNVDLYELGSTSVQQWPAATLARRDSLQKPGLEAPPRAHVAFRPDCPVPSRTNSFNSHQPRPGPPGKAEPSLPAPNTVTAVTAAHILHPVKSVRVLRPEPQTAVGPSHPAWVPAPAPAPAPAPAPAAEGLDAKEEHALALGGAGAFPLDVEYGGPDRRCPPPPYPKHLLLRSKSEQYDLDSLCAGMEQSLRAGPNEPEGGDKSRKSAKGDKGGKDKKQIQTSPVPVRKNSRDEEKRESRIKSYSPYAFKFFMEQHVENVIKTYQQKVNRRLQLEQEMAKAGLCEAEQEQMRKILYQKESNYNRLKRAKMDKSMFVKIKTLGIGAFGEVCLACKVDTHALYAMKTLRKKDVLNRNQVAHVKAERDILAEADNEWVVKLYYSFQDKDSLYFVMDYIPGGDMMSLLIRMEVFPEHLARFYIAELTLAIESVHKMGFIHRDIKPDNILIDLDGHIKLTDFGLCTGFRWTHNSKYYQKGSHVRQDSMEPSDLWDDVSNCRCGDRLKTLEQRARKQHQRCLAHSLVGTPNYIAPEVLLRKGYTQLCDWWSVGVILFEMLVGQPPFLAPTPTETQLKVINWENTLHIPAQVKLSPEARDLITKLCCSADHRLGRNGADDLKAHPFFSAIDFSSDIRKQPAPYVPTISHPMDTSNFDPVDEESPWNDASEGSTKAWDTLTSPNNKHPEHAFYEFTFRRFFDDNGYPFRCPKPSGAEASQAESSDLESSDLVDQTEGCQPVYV
Summary of the method: (§1)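 Substrate in fresh buffer receives cofactors, then kinase, then compound in DMSO for a 20 min room-temperature preincubation. Reactions start with 33P-ATP and run 2 h; phosphorylation is read by P81 filter binding, and IC50 comes from a 10-point curve.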

LATS1 = target: T2, LATS1 (Homo sapiens, UniProt O95835); assay: RBC HotSpot kinase assay (33P-ATP, P81 filter-binding), LATS1
T2 sequence (O95835 1-1130): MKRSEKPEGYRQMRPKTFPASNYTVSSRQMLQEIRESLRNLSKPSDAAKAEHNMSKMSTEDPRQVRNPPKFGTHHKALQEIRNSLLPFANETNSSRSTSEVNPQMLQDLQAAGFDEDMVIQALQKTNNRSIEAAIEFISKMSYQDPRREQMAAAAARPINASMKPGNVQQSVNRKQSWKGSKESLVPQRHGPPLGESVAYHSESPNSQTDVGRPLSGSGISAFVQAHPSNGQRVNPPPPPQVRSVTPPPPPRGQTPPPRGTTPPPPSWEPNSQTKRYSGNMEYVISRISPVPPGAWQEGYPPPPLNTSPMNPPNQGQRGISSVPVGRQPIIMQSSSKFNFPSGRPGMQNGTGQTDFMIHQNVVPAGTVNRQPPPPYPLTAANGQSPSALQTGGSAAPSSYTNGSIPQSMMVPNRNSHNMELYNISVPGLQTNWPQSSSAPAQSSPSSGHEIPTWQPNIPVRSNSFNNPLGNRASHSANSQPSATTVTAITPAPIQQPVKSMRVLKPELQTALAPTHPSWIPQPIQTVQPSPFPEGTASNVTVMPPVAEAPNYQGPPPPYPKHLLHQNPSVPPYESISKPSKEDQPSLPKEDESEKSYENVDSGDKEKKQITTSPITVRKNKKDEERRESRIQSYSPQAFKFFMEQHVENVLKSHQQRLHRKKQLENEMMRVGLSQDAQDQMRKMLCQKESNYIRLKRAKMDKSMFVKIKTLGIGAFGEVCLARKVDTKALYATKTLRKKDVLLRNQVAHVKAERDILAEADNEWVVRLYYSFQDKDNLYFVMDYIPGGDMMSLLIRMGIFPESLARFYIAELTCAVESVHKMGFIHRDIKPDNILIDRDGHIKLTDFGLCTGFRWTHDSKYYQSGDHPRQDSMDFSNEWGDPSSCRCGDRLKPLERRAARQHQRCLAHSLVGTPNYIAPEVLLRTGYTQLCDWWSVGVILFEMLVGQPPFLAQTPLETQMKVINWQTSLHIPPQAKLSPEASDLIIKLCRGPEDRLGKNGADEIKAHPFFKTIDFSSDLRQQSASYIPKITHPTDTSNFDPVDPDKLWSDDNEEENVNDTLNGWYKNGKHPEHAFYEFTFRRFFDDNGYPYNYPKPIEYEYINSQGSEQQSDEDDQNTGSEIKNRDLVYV
Summary of the method: as §1

AKT = AKT (Homo sapiens, UniProt P31749); assay: RBC HotSpot kinase assay (33P-ATP, P81 filter-binding), AKT
Summary of the method: as §1

[1] = Table 28, biochemical kinase assay, read-out: LATS2 IC50
[2] = Table 28, biochemical kinase assay, read-out: LATS1 IC50
[3] = Table 28, biochemical kinase assay, read-out: AKT IC50
[4] = biochemical kinase inhibition, read-out: LATS2 IC50
[5] = biochemical kinase inhibition, read-out: LATS1 IC50
[6] = biochemical kinase inhibition, read-out: AKT IC50
[7] = Table 32, biochemical kinase assay, read-out: LATS2 IC50
[8] = Table 32, biochemical kinase assay, read-out: LATS1 IC50
[9] = Table 32, biochemical kinase assay, read-out: AKT IC50

AKT, sequence (P31749 whole entry): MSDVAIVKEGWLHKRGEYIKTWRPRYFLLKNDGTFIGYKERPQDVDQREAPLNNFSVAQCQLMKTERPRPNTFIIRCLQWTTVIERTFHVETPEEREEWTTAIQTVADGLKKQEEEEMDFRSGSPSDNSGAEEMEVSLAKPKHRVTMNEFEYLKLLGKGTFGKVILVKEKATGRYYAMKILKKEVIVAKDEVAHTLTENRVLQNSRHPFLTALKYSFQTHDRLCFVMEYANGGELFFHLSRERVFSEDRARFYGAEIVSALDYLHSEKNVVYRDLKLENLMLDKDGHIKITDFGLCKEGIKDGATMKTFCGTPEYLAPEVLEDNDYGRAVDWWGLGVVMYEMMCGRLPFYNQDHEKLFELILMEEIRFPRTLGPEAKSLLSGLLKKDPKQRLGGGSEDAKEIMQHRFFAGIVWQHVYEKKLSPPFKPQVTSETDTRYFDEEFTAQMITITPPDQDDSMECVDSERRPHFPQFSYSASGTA

Row | IC50 (LATS2; [1]) [nM] | IC50 (LATS1; [2]) [nM] | IC50 (AKT; [3]) [nM] | Structure (SMILES) | further results
1 | 14 | 16 | 828 | OC1(c2ccc(-c3ccnc4[nH]cc(F)c34)cc2Cl)CNC1 [Compound 105, 3-(2-chloro-4-(3-fluoro-1H-pyrrolo[2,3-b]pyridin-4-yl)phenyl)azetidin-3-ol] | 
2 | 10 | 11 | 1320 | COc1ccccc1-c1c[nH]c2nccc(-c3ccc(CN)cc3)c12 [Compound 242, (4-(3-(2-methoxyphenyl)-1H-pyrrolo[2,3-b]pyridin-4-yl)phenyl) methanamine] | 
3 | 33 | 17 | 321 | c1cc(-c2ccc(C3CCCN3)cc2)c2cc[nH]c2n1 (stereo not drawn) [Compound 278, 4-(4-(pyrrolidin-2-yl)phenyl)-1H-pyrrolo[2,3-b]pyridine] | 
4 | 29.3 | 9.8 | 1080 | Fc1ccc(CNCc2ccc(-c3ccnc4[nH]ccc34)cc2)cc1 [Compound 279, N-(4-(1H-pyrrolo[2,3-b]pyridin-4-yl)benzyl)-1-(4-fluorophenyl) methanamine] | 
5 | 50.2 | 66.3 | 4410 | COC(=O)c1c[nH]c2nccc(-c3ccc(C4CCNCC4)c(-c4ccc(CN)cc4)c3)c12 [Compound 152, methyl 4-(4′-(aminomethyl)-6-(piperidin-4-yl)-[1,1′-biphenyl]-3-yl)-1H-pyrrolo[2,3-b]pyridine-3-carboxylate] | 
6 | 26 | 50 | 2770 | O=C([C@@H]1CCCN1)N1CC(O)(c2ccc(-c3ccnc4[nH]cc(F)c34)cc2Cl)C1 [Compound 144, (S)-4-(3-chloro-4-(3-hydroxy-1-prolylazetidin-3-yl)phenyl)-3-fluoro-1H-pyrrolo[2,3-b]pyridine] | 
7 |  |  |  | COC(=O)C1(c2ccc(-c3ccnc4[nH]cc(F)c34)cc2)CCN(C)CC1 [Compound 193, Methyl 4-(4-(3-fluoro-1H-pyrrolo[2,3-b]pyridin-4-yl)phenyl)-1-methylpiperidine-4-carboxylate] | IC50 (LATS2): 26 nM; IC50 (LATS1): 53 nM; IC50 (AKT): 128 nM
8 | 36.9 | 32.1 | 1510 | O=C([C@H]1CCCN1)N1CCC(c2ccc(-c3ccnc4[nH]cc(F)c34)cc2Cl)CC1 [Compound 165, (R)-4-(3-chloro-4-(1-prolylpiperidin-4-yl)phenyl)-3-fluoro-1H-pyrrolo[2,3-b]pyridine] | 
9 | 63.4 | 99.4 | 2080 | C[C@@H]1CN(C2CCS(=O)(=O)CC2)C[C@H](C)C1(O)c1cnc(-c2ccnc3[nH]cc(F)c23)cc1F (stereo partly drawn) [Compound 35, 4-((3S,5R)-4-(4-fluoro-6-(3-fluoro-1H-pyrrolo[2,3-b]pyridin-4-yl)pyridin-3-yl)-4-hydroxy-3,5-dimethylpiperidin-1-yl)tetrahydro-2H-thiopyran 1,1-dioxide] | 
10 | 350 | 108 | 1180 | CN1CC(O)(c2ccc(-c3ccnc4[nH]cc(F)c34)cc2Cl)C1 [Compound 137, 3-(2-chloro-4-(3-fluoro-1H-pyrrolo[2,3-b]pyridin-4-yl)phenyl)-1-methylazetidin-3-ol] | 
11 |  |  |  | Cc1cc(-c2ccnc3[nH]cc(C#N)c23)cc(F)c1[C@@]1(O)[C@H](C)CN(C(=O)C(C)(C)N)C[C@@H]1C [Compound 2018, 4-(4-((3S,4s,5R)-1-(2-amino-2-methylpropanoyl)-4-hydroxy-3,5-dimethylpiperidin-4-yl)-3-fluoro-5-methylphenyl)-1H-pyrrolo[2,3-b]pyridine-3-carbonitrile] | IC50 (LATS2; [4]): 7.2 nM; IC50 (LATS1; [5]): 11.1 nM; IC50 (AKT; [6]): 610 nM
12 |  |  |  | O=C(CO)NCC(O)(c1ccc(Cl)cc1)c1ccc(-c2ccnc3[nH]cc(F)c23)cc1 (stereo not drawn) [Compound 1016, N-(2-(4-chlorophenyl)-2-(4-(3-fluoro-1H-pyrrolo[2,3-b]pyridin-4-yl)phenyl)-2-hydroxyethyl)-2-hydroxyacetamide] | IC50 (LATS2; [7]): 4 nM; IC50 (LATS1; [8]): 7 nM; IC50 (AKT; [9]): 7.4 nM
13 | 84 | 69 | 2570 | COc1cc(-c2ccnc3[nH]ccc23)ccc1C1CCNCC1 [Compound 180, 4-(3-methoxy-4-(piperidin-4-yl)phenyl)-1H-pyrrolo[2,3-b]pyridine] | 
14 | 7.9 | 8.4 | 218 | NCc1ccc(-c2ccnc3[nH]cc(Cl)c23)cc1Cl [Compound 249, (2-chloro-4-(3-chloro-1H-pyrrolo[2,3-b]pyridin-4-yl)phenyl) methanamine] | 
15 |  |  |  | Cc1cc(-c2ccnc3[nH]cc(C#N)c23)ccc1[C@@]1(O)[C@H](C)CN(C(=O)[C@@H](C)N)C[C@@H]1C [Compound 2010, 4-(4-((3S,4S,5R)-1-(D-alanyl)-4-hydroxy-3,5-dimethylpiperidin-4-yl)-3-methylphenyl)-1H-pyrrolo[2,3-b]pyridine-3-carbonitrile] | IC50 (LATS2; [4]): 8.5 nM; IC50 (LATS1; [5]): 13.4 nM; IC50 (AKT; [6]): 89.4 nM
16 |  |  |  | NCC(=O)NCC(O)(c1ccc(Cl)cc1)c1ccc(-c2ccnc3[nH]cc(F)c23)cc1 (stereo not drawn) [Compound 1029, 2-amino-N-(2-(4-chlorophenyl)-2-(4-(3-fluoro-1H-pyrrolo[2,3-b]pyridin-4-yl)phenyl)-2-hydroxyethyl)acetamide] | IC50 (LATS2; [7]): 1.3 nM; IC50 (LATS1; [8]): 2.6 nM; IC50 (AKT; [9]): 0.7 nM
17 | 60.5 | 36.6 | 2430 | c1ccc(CNCc2ccc(-c3ccnc4[nH]ccc34)cc2)cc1 [Compound 274, N-(4-(1H-pyrrolo[2,3-b]pyridin-4-yl)benzyl)-1-phenylmethanamine] | 
18 | 22.4 | 24.1 | 1020 | C[C@@H]1CN(C(=O)[C@@H]2COCCN2)C[C@H](C)C1(O)c1c(F)cc(-c2ccnc3[nH]cc(F)c23)cc1F (stereo partly drawn) [Compound 81, ((3S,5R)-4-(2,6-difluoro-4-(3-fluoro-1H-pyrrolo[2,3-b]pyridin-4-yl)phenyl)-4-hydroxy-3,5-dimethylpiperidin-1-yl)((S)-morpholin-3-yl)methanone] | 

Row | Structure (SMILES) | IC50 (LATS2; [1]) [nM] | IC50 (LATS1; [2]) [nM] | IC50 (AKT; [3]) [nM] | further results
19 | Cc1cc(-c2ccnc3[nH]cc(F)c23)cc(F)c1[C@@]1(O)[C@H](C)CNC[C@@H]1C [Compound 16, (3S,4s,5R)-4-(2-fluoro-4-(3-fluoro-1H-pyrrolo[2,3-b]pyridin-4-yl)-6-methylphenyl)-3,5-dimethylpiperidin-4-ol] | 10 | 7.1 | 201 | 
